Measurements as given in ChEMBL document CHEMBL5725856, “Substituted N-bicyclo-2-aryl-quinolin-4-carboxamides and use thereof” (2018).

Target: Prostaglandin F2-alpha receptor (Homo sapiens, UniProt P43088)
Assay: In Vitro Test of Inhibition of Human FP Receptor Activity : For the characterization of test substances in respect of FP antagonism, PGF2α-induced calcium flux in FP-expressing CHEM1 cells (Millipore, HTS093C) was used.3000 cells in 25 μl of full medium [DMEM F12, 10% FCS, 1.35 mM sodium pyruvate, 20 mM HEPES, 4 mM GlutaMAX, 2% sodium bicarbonate, 1% Pen/Strep, 1% 100× non-essential amino acids] are sown per well of a 384 multititer plate (from Greiner, TC plate, black with clear base) and incubated at 37° C./5% CO2 for 24 hours. Prior to the measurement, the medium is replaced by 30 μl of Fluo-8 AM loading buffer [calcium-free Tyrode (130 mM NaCl, 5 mM KCl, 20 mM HEPES, 1 mM MgCl2, 4.8 mM NaHCO3, pH 7.4), 2 mM CaCl2, 1× SmartBlock (from CANDOR Bioscience GmbH), 4.5 mM Probenecid, 5 μM Fluo-8 AM, 0.016% Pluronic, 0.04% Brilliant black] and incubated at 37° C./5% CO2 for 30 minutes. The test substance is prepared in DMSO in various concentrations as a dose-response curve (starting concentration 10 mM, dilution factor 3.16) and prediluted 1:50 with calcium-free Tyrode/2 mM CaCl2. 10 μl of the prediluted substance solution are added to the Fluo-8-laden cells and incubated at 37° C./5% CO2 for 10 minutes. […]
Type: cell-based

Sequence of Prostaglandin F2-alpha receptor (P43088 whole entry): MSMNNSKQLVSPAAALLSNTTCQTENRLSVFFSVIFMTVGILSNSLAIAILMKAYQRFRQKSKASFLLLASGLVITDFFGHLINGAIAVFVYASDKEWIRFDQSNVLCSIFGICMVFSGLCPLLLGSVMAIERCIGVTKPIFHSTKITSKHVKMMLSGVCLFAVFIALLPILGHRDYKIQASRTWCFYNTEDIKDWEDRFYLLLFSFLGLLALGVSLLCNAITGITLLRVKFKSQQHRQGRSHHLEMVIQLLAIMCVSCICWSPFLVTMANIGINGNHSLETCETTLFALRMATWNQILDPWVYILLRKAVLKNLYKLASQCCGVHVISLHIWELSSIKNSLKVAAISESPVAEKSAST

Cc1c(-c2ccccc2)nc2ccc(C(C)(C)C)cc2c1C(=O)NC12CCC(C(=O)O)(CC1)CC2
IC50: 456 nM
